The results in this text go back to US12247015B2, “3-amino-4H-benzo[e][1,2,4]thiadiazine 1,1-dioxide derivatives as inhibitors of MRGX2” (Solent Therapeutics, LLC, priority 2019, dated 2025).

The assay has as its target hMRGX2 (CHO-K1 cells overexpressing MRGX2) (Homo sapiens (Human), UniProt Q96LB1). Kind of assay: In vitro inhibition (EC50) of intracellular calcium flux, FLIPR Tetra, substance P stimulation. The note with it: stimulated with MRGX2 ligand substance P, FLIPR Calcium 5, read-out: hMRGX2 Cellular Potency (pEC50) (converted). It counts as cell-based. The essentials:
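CHO-K1 cells overexpressing human MRGX2, loaded with Calcium 5 dye for 30 min at 37 °C, then given compound (11-point, top 10 μM).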

The structures appear in SMILES notation.

Chain of hMRGX2 (CHO-K1 cells overexpressing MRGX2) (Q96LB1 whole entry): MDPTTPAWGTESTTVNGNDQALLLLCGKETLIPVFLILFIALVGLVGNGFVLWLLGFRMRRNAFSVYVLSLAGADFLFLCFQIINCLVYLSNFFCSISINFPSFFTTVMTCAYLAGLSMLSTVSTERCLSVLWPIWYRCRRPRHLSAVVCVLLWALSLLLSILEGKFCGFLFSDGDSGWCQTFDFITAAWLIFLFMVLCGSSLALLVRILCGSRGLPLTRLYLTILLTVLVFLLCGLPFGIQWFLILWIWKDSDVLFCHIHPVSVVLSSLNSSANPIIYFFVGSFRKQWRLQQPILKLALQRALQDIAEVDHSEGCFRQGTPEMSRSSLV

In the case of `O=S1(=O)N=C(NCc2nccs2)Nc2c(-c3ccnc(F)c3Cl)cccc21` [Example 49, 5-(3-chloro-2-fluoropyridin-4-yl)-3-((thiazol-2-ylmethyl)amino)-4H-benzo[e][1,2,4]thiadiazine 1,1-dioxide], the EC50 is 24.2 nM.

As for `CC(C)c1ccc(NC2=NS(=O)(=O)c3cccc(-c4cnn(C5CC(F)(F)C5)c4)c3N2)cc1` [Example 104, 5-(1-(3,3-difluorocyclobutyl)-1H-pyrazol-4-yl)-3-((4-isopropylphenyl)amino)-4H-benzo[e][1,2,4]thiadiazine 1,1-dioxide], the EC50 was 89.1 nM.

As for `CNC1=NS(=O)(=O)c2cccc(-c3cccc(F)c3C3CC3)c2N1` [Example 157, 5-(2-cyclopropyl-3-fluorophenyl)-3-(methylamino)-4H-benzo[e][1,2,4]thiadiazine 1,1-dioxide], the EC50 is 56.2 nM.

Turning to `O=S1(=O)N=C(NCCF)Nc2c(-c3cccc(F)c3F)cccc21` [Example 21, 5-(2,3-difluorophenyl)-3-((2-fluoroethyl)amino)-4H-benzo[e][1,2,4]thiadiazine 1,1-dioxide], the EC50 was 738 nM.

As to `CCNC1=NS(=O)(=O)c2cc(F)cc(-c3ccccc3Cl)c2N1` [Example 15, 5-(2-chlorophenyl)-3-(ethylamino)-7-fluoro-4H-benzo[e][1,2,4]thiadiazine 1,1-dioxide], the EC50 was 62.4 nM.

With `COCCNC1=NS(=O)(=O)c2cccc(-c3cc(F)ccc3F)c2N1` [Example 141, 5-(2,5-difluorophenyl)-3-((2-methoxyethyl)amino)-4H-benzo[e][1,2,4]thiadiazine 1,1-dioxide], the EC50 was 366 nM.

With `O=S1(=O)N=C(NCCc2ccccn2)Nc2c(-c3cccc(F)c3Cl)cccc21` [Example 67, 5-(2-chloro-3-fluorophenyl)-3-((2-(pyridin-2-yl)ethyl)amino)-4H-benzo[e][1,2,4]thiadiazine 1,1-dioxide], the EC50 is 36.6 nM.

For `CN(C)C(=O)CNC1=NS(=O)(=O)c2cccc(-c3cccc(F)c3Cl)c2N1` [Example 62, 2-((5-(2-chloro-3-fluorophenyl)-1,1-dioxido-4H-benzol[e][1,2,4]thiadiazin-3-yl)amino)-N,N-dimethylacetamide], the EC50 is 279 nM.

`Cc1nn(C)cc1-c1cccc2c1NC(NCC1CCC1)=NS2(=O)=O` [Example 61, 3-((cyclobutylmethyl)amino)-5-(1,3-dimethyl-1H-pyrazol-4-yl)-4H-benzo[e][1,2,4]thiadiazine 1,1-dioxide]: the EC50 is 430 nM.

Take `O=S1(=O)N=C(NCC2CCC2)Nc2c(-c3cccc(F)c3Cl)cccc21` [Example 17, 5-(2-chloro-3-fluorophenyl)-3-((cyclobutylmethyl)amino)-4H-benzo[e][1,2,4]thiadiazine 1,1-dioxide]: the EC50 was 20.7 nM.

With `CCNC1=NS(=O)(=O)c2cccc(-c3ccnc(F)c3Cl)c2N1` [Example 52, 5-(3-chloro-2-fluoropyridin-4-yl)-3-(ethylamino)-4H-benzo[e][1,2,4]thiadiazine 1,1-dioxide], the EC50 was 131 nM.

As for `CO[C@H](C)CNC1=NS(=O)(=O)c2cccc(-c3cc(F)cc(F)c3F)c2N1` (single isomer, unassigned) [Example 129], the EC50 was 2690 nM.

As to `O=S1(=O)N=C(NCC(F)F)Nc2c(-c3cccc(F)c3Cl)cc(F)cc21` [Example 10, 5-(2-chloro-3-fluorophenyl)-3-((2,2-difluoroethyl)amino)-7-fluoro-4H-benzo[e][1,2,4]thiadiazine 1,1-dioxide], the EC50 is 39.3 nM.

On to `CNC1=NS(=O)(=O)c2cccc(-c3cc(F)cc(F)c3F)c2N1` [Example 96, 3-(methylamino)-5-(2,3,5-trifluorophenyl)-4H-benzo[e][1,2,4]thiadiazine 1,1-dioxide], for which the EC50 was 598 nM.

Take `CC(NC1=NS(=O)(=O)c2cc(F)cc(-c3cccc(F)c3Cl)c2N1)c1nccs1` (stereo not shown) [Example 8, 5-(2-chloro-3-fluorophenyl)-7-fluoro-3-((1-(thiazol-2-yl)ethyl)amino)-4H-benzo[e][1,2,4]thiadiazine 1,1-dioxide]: the EC50 is 110 nM.

As for `Cc1coc(CNC2=NS(=O)(=O)c3cccc(-c4cccc(F)c4Cl)c3N2)n1` [Example 30, 5-(2-chloro-3-fluorophenyl)-3-(((4-methyloxazol-2-yl)methyl)amino)-4H-benzo[e][1,2,4]thiadiazine 1,1-dioxide], the EC50 is 28.6 nM.

`Cc1cnccc1-c1cccc2c1NC(Nc1ccc(C(C)C)cc1)=NS2(=O)=O` [Example 113, 3-((4-isopropylphenyl)amino)-5-(3-methylpyridin-4-yl)-4H-benzo[e][1,2,4]thiadiazine 1,1-dioxide]: the EC50 is 233 nM.

As to `COc1cccc(CNC2=NS(=O)(=O)c3cccc(C4CC4)c3N2)n1` [Example 120, 5-cyclopropyl-3-(((6-methoxypyridin-2-yl)methyl)amino)-4H-benzo[e][1,2,4]thiadiazine 1,1-dioxide], the EC50 is 578 nM.

For `Cc1cnc(CNC2=NS(=O)(=O)c3cccc(-c4cccc(F)c4Cl)c3N2)o1` [Example 38, 5-(2-chloro-3-fluorophenyl)-3-(((5-methyloxazol-2-yl)methyl)amino)-4H-benzo[e][1,2,4]thiadiazine 1,1-dioxide], the EC50 is 51.9 nM.

For the compound `CNC1=NS(=O)(=O)c2cccc(-c3ccc(F)cc3Cl)c2N1` [Example 94, 5-(2-chloro-4-fluorophenyl)-3-(methylamino)-4H-benzo[e][1,2,4]thiadiazine 1,1-dioxide], the EC50 is 235 nM.

For `Cn1cccc(CNC2=NS(=O)(=O)c3cccc(-c4cccc(F)c4F)c3N2)c1=O` [Example 20, 3-(((5-(2,3-difluorophenyl)-1,1-dioxido-4H-benzo[e][1,2,4]thiadiazin-3-yl)amino)methyl)-1-methylpyridin-2(1H)-one], the EC50 was 857 nM.

Regarding `CNC1=NS(=O)(=O)c2cccc(-c3ccnc(F)c3Cl)c2N1` [Example 56, 5-(3-chloro-2-fluoropyridin-4-yl)-3-(methylamino)-4H-benzo[e][1,2,4]thiadiazine 1,1-dioxide], the EC50 was 282 nM.

With `CCNC1=NS(=O)(=O)c2cccc(-c3ccccc3Cl)c2N1` [Example 42, 5-(2-chlorophenyl)-3-(ethylamino)-4H-benzo[e][1,2,4]thiadiazine 1,1-dioxide], the EC50 was 77.1 nM.

On to `CNC1=NS(=O)(=O)c2cccc(-c3cc(Cl)ccc3C#N)c2N1` [Example 90, 4-chloro-2-(3-(methylamino)-1,1-dioxido-4H-benzo[e][1,2,4]thiadiazin-5-yl)benzonitrile], for which the EC50 is 973 nM.

In the case of `CC(C)c1ccc(NC2=NS(=O)(=O)c3cccc(-c4ccn(C)n4)c3N2)cc1` [Example 108, 3-((4-isopropylphenyl)amino)-5-(1-methyl-1H-pyrazol-3-yl)-4H-benzo[e][1,2,4]thiadiazine 1,1-dioxide], the EC50 was 592 nM.

Turning to `COCCNC1=NS(=O)(=O)c2cccc(-c3cccc(F)c3F)c2N1` [Example 37, 5-(2,3-difluorophenyl)-3-((2-methoxyethyl)amino)-4H-benzo[e][1,2,4]thiadiazine 1,1-dioxide], the EC50 is 394 nM.

Consider `O=S1(=O)N=C(NCc2ncccc2F)Nc2c(C3CC3)cccc21` [Example 119, 5-cyclopropyl-3-(((3-fluoropyridin-2-yl)methyl)amino)-4H-benzo[e][1,2,4]thiadiazine 1,1-dioxide], for which the EC50 was 484 nM.

Take `CO[C@H](C)CNC1=NS(=O)(=O)c2cccc(-c3cccc(F)c3Cl)c2N1` [Example 47, (R)-5-(2-chloro-3-fluorophenyl)-3-((2-methoxypropyl)amino)-4H-benzo[e][1,2,4]thiadiazine 1,1-dioxide]: the EC50 is 93.3 nM.

Take `O=S1(=O)N=C(NCc2ccccn2)Nc2c(-c3cc(F)cc(F)c3F)cccc21` [Example 131, 3-((pyridin-2-ylmethyl)amino)-5-(2,3,5-trifluorophenyl)-4H-benzo[e][1,2,4]thiadiazine 1,1-dioxide]: the EC50 was 88.5 nM.

As to `O=S1(=O)N=C(NCc2nccs2)Nc2c(-c3cccc(F)c3Cl)cc(F)cc21` [Example 5, 5-(2-chloro-3-fluorophenyl)-7-fluoro-3-((thiazol-2-ylmethyl)amino)-4H-benzo[e][1,2,4]thiadiazine 1,1-dioxide], the EC50 was 20 nM.

With `O=S1(=O)N=C(NCCc2cccnc2)Nc2c(-c3cccc(F)c3Cl)cccc21` [Example 69, 5-(2-chloro-3-fluorophenyl)-3-((2-(pyridin-3-yl)ethyl)amino)-4H-benzo[e][1,2,4]thiadiazine 1,1-dioxide], the EC50 was 601 nM.

As for `CO[C@@H](C)CNC1=NS(=O)(=O)c2cccc(-c3cccc(F)c3F)c2N1` [Example 25, (S)-5-(2,3-difluorophenyl)-3-((2-methoxypropyl)amino)-4H-benzo[e][1,2,4]thiadiazine 1,1-dioxide], the EC50 is 2750 nM.

In the case of `CNC1=NS(=O)(=O)c2cccc(-c3ccc(C)cc3Cl)c2N1` [Example 92, 5-(2-chloro-4-methylphenyl)-3-(methylamino)-4H-benzo[e][1,2,4]thiadiazine 1,1-dioxide], the EC50 is 92.7 nM.

As to `O=S1(=O)N=C(NCc2cc(F)ccc2F)Nc2c(-c3cc(F)cc(F)c3)cccc21` [Example 76, 3-((2,5-difluorobenzyl)amino)-5-(3,5-difluorophenyl)-4H-benzo[e][1,2,4]thiadiazine 1,1-dioxide], the EC50 is 34.8 nM.

With `O=S1(=O)N=C(NCc2ccccn2)Nc2c(-c3cc(F)ccc3F)cccc21` [Example 139, 5-(2,5-difluorophenyl)-3-((pyridin-2-ylmethyl)amino)-4H-benzo[e][1,2,4]thiadiazine 1,1-dioxide], the EC50 is 246 nM.

Take `O=S1(=O)N=C(Nc2ccccc2)Nc2c(C3CC3)cccc21` [Example 121, 5-cyclopropyl-3-(phenylamino)-4H-benzo[e][1,2,4]thiadiazine 1,1-dioxide]: the EC50 was 431 nM.

As for `CNC1=NS(=O)(=O)c2cccc(-c3cc(F)ccc3Cl)c2N1` [Example 93, 5-(2-chloro-5-fluorophenyl)-3-(methylamino)-4H-benzo[e][1,2,4]thiadiazine 1,1-dioxide], the EC50 is 181 nM.
